# Data published in patent publication US20250352520A1, “USE OF DEXPRAMIPEXOLE FOR THE TREATMENT OF EOSINOPHILIC COPD” (Areteia Therapeutics, Inc., priority 2024, published 2025).
# Method: Participants performed post-BD spirometry at specific visits as noted in the SOA.
# After completing the pre-BD spirometry, participants inhaled four puffs of albuterol/salbutamol (site sourced) metered dose inhaler (approximately 100 μg albuterol/salbutamol base per actuation), with each actuation 1 minute apart. Post-BD spirometry was assessed within 15 to 30 minutes after inhalation of albuterol/salbutamol.
# [1] = AECR≥0.5 patients, after 16 weeks
# [2] = Week 16, <50% AEC reduction at Week 16
# [3] = Week 16, <50% AEC reduction at Week 16 (N = 4), 150 mg BID
smiles,measurement,setting,value
"CCCN[C@@H]1CCc2nc(N)sc2C1 [Dexpramipexole, (6R)-2-amino-4,5,6,7-tetrahydro-6-(propylamino)benzothiazole]","Post-BD FEV1, absolute increase",[1],220 mL
same,"Post-BD FEV1, improvement compared to baseline",[1],16.6%
same,"Post-BD FEF25-75, absolute increase","AECR≥0.5 patients, week 16",130 mL
same,"Post-BD FEF25-75, average increase compared to baseline","AECR≥0.5 patients, week 16",26.7%
same,"Post-BD FVC, absolute increase","AECR≥0.5 patients, week 16",226.7 mL
same,"Post-BD FVC, average increase compared to baseline","AECR≥0.5 patients, week 16",9.2%
same,"Post-BD Peak Flow, average improvement compared to baseline","AECR≥0.5 patients, week 16",40.2%
same,"Post-BD FEV1 % change from baseline, Max",[2],19%
same,"Post-BD FEV1 % change from baseline, Mean ± SD",[2],−0.1± 21.10%
same,"Post-BD FEV1 % change from baseline, Median",[2],4.8%
same,"Post-BD FEV1 % change from baseline, Min",[2],−29%
same,"Post-BD FEV1 % change from baseline, Q1",[2],−15%
same,"Post-BD FEV1 % change from baseline, Q3",[2],15%
same,"Post-BD FEV1 Observed, Max",[2],1950 mL
same,"Post-BD FEV1 Observed, Mean ± SD",[2],1522.5 ± 546.34 mL
same,"Post-BD FEV1 Observed, Median",[2],1705.0 mL
same,"Post-BD FEV1 Observed, Min",[2],730 mL
same,"Post-BD FEV1 Observed, Q1",[2],1170 mL
same,"Post-BD FEV1 Observed, Q3",[2],1875 mL
same,"Post-BD FEV1 change from baseline, Max",[2],290 mL
same,"Post-BD FEV1 change from baseline, Mean ± SD",[2],40.0 ± 260.90 mL
same,"Post-BD FEV1 change from baseline, Median",[2],85.0 mL
same,"Post-BD FEV1 change from baseline, Min",[2],-300 mL
same,"Post-BD FEV1 change from baseline, Q1",[2],-160 mL
same,"Post-BD FEV1 change from baseline, Q3",[2],240 mL
same,"Post bronchodilator Forced Expiratory Flow 25-75% (FEF25-75), % CFB (Percent change from baseline), Max",[3],54%
same,"Post bronchodilator Forced Expiratory Flow 25-75% (FEF25-75), % CFB (Percent change from baseline), Mean ± SD",[3],9.7 ± 40.69%
same,"Post bronchodilator Forced Expiratory Flow 25-75% (FEF25-75), % CFB (Percent change from baseline), Median",[3],7.3%
same,"Post bronchodilator Forced Expiratory Flow 25-75% (FEF25-75), % CFB (Percent change from baseline), Min",[3],−29%
same,"Post bronchodilator Forced Expiratory Flow 25-75% (FEF25-75), % CFB (Percent change from baseline), Q1",[3],−25%
same,"Post bronchodilator Forced Expiratory Flow 25-75% (FEF25-75), % CFB (Percent change from baseline), Q3",[3],44%
same,"Post bronchodilator Forced Expiratory Flow 25-75% (FEF25-75), CFB (Change from baseline), Max",[3],290 mL/s
same,"Post bronchodilator Forced Expiratory Flow 25-75% (FEF25-75), CFB (Change from baseline), Mean ± SD",[3],90.0 ± 225.24 mL/s
same,"Post bronchodilator Forced Expiratory Flow 25-75% (FEF25-75), CFB (Change from baseline), Median",[3],90.0 mL/s
same,"Post bronchodilator Forced Expiratory Flow 25-75% (FEF25-75), CFB (Change from baseline), Min",[3],-110 mL/s
same,"Post bronchodilator Forced Expiratory Flow 25-75% (FEF25-75), CFB (Change from baseline), Q1",[3],-105 mL/s
same,"Post bronchodilator Forced Expiratory Flow 25-75% (FEF25-75), CFB (Change from baseline), Q3",[3],285 mL/s
same,"Post bronchodilator Forced Expiratory Flow 25-75% (FEF25-75), Observed, Max",[3],1090 mL/s
same,"Post bronchodilator Forced Expiratory Flow 25-75% (FEF25-75), Observed, Mean ± SD",[3],650.0 ± 382.19 mL/s
same,"Post bronchodilator Forced Expiratory Flow 25-75% (FEF25-75), Observed, Median",[3],635.0 mL/s
same,"Post bronchodilator Forced Expiratory Flow 25-75% (FEF25-75), Observed, Min",[3],240 mL/s
same,"Post bronchodilator Forced Expiratory Flow 25-75% (FEF25-75), Observed, Q1",[3],340 mL/s
same,"Post bronchodilator Forced Expiratory Flow 25-75% (FEF25-75), Observed, Q3",[3],960 mL/s
same,"Post bronchodilator Forced Vital Capacity (FVC), % CFB (Percent change from baseline), Max",[3],18%
same,"Post bronchodilator Forced Vital Capacity (FVC), % CFB (Percent change from baseline), Mean ± SD",[3],3.0 ± 14.06%
same,"Post bronchodilator Forced Vital Capacity (FVC), % CFB (Percent change from baseline), Median",[3],4.6%
same,"Post bronchodilator Forced Vital Capacity (FVC), % CFB (Percent change from baseline), Min",[3],−16%
same,"Post bronchodilator Forced Vital Capacity (FVC), % CFB (Percent change from baseline), Q1",[3],−6%
same,"Post bronchodilator Forced Vital Capacity (FVC), % CFB (Percent change from baseline), Q3",[3],12%
same,"Post bronchodilator Forced Vital Capacity (FVC), CFB (Change from baseline), Max",[3],450 mL
same,"Post bronchodilator Forced Vital Capacity (FVC), CFB (Change from baseline), Mean ± SD",[3],70.0 ± 388.16 mL
same,"Post bronchodilator Forced Vital Capacity (FVC), CFB (Change from baseline), Median",[3],150.0 mL
same,"Post bronchodilator Forced Vital Capacity (FVC), CFB (Change from baseline), Min",[3],-470 mL
same,"Post bronchodilator Forced Vital Capacity (FVC), CFB (Change from baseline), Q1",[3],-180 mL
same,"Post bronchodilator Forced Vital Capacity (FVC), CFB (Change from baseline), Q3",[3],320 mL
same,"Post bronchodilator Forced Vital Capacity (FVC), Observed, Max",[3],3460 mL
same,"Post bronchodilator Forced Vital Capacity (FVC), Observed, Mean ± SD",[3],3082.5 ± 447.84 mL
same,"Post bronchodilator Forced Vital Capacity (FVC), Observed, Median",[3],3165.0 mL
same,"Post bronchodilator Forced Vital Capacity (FVC), Observed, Min",[3],2540 mL
same,"Post bronchodilator Forced Vital Capacity (FVC), Observed, Q1",[3],2715 mL
same,"Post bronchodilator Forced Vital Capacity (FVC), Observed, Q3",[3],3450 mL
same,"Post bronchodilator Peak Flow, % CFB (Percent change from baseline), Max",[3],42%
same,"Post bronchodilator Peak Flow, % CFB (Percent change from baseline), Mean ± SD",[3],16.9 ± 28.64%
same,"Post bronchodilator Peak Flow, % CFB (Percent change from baseline), Median",[3],18.1%
same,"Post bronchodilator Peak Flow, % CFB (Percent change from baseline), Min",[3],−10%
same,"Post bronchodilator Peak Flow, % CFB (Percent change from baseline), Q1",[3],−8%
same,"Post bronchodilator Peak Flow, % CFB (Percent change from baseline), Q3",[3],42%
same,"Post bronchodilator Peak Flow, CFB (Change from baseline), Max",[3],150 L/min
same,"Post bronchodilator Peak Flow, CFB (Change from baseline), Mean ± SD",[3],51.5 ± 88.04 L/min
same,"Post bronchodilator Peak Flow, CFB (Change from baseline), Median",[3],46.0 L/min
same,"Post bronchodilator Peak Flow, CFB (Change from baseline), Min",[3],-36 L/min
same,"Post bronchodilator Peak Flow, CFB (Change from baseline), Q1",[3],-22 L/min
same,"Post bronchodilator Peak Flow, CFB (Change from baseline), Q3",[3],125 L/min
same,"Post bronchodilator Peak Flow, Observed, Max",[3],509 L/min
same,"Post bronchodilator Peak Flow, Observed, Mean ± SD",[3],326.0 ± 148.82 L/min
